Data published in US20230027295A1, “FXIA INHIBITORS AND PREPARATION METHOD THEREFOR AND PHARMACEUTICAL USE THEREOF” (Shenzhen Salubris Pharmaceuticals Co., Ltd., priority 2019, published 2023).

Legend:
Rat pharmacokinetics = assay type: in vivo, SD rats; set-up: AUC: concentration or dose not given beside the values; settings: for AUC / Cmax / Tmax / clearance / half-life / Vd: male, SD, plasma; for Vd: read-out: Vss
Source text: Example 53: Investigation of the Pharmacokinetic Characteristics of the Compounds of the Present Invention
SD rats: male, 180-250 g, purchased from Guangdong Medical Laboratory Animal Center. Cynomolgus monkey: male, 4-6 kg, purchased from Guangzhou Chunsheng Biological Research Institute Co., Ltd. Beagle dog: male, 8-12 kg, developed in Kanglong Chemical (Ningbo) New Drug Technology Co., Ltd.
Reagents: DMSO (dimethyl sulfoxide), PEG-400 (polyethylene glycol 400), normal brine, heparin, acetonitrile, formic acid, and propranolol (internal standard) are commercially available.
Instrumentation: Thermo Fisher Scientific LC-MS (U300 UPLC, TSQ […] ULTRA triple quadrupole mass spectrometer).
The compound was weighed and dissolved in DMSO-PEG-400-physiological brine (5:60:35, v/v/v) system. After the rats/monkeys were administered intravenously or by gavage, 200 μL of venous blood was collected at 5 min (not collected when administered by gavage), 15 min, 30 min, 1 h, 2 h, 4 h, 6 h, 8 h, and 24 h in heparinized EP tubes, centrifuged at 12000 rpm for 2 min, and the plasma was frozen at −80° C. for testing. A certain amount of the test substance was precisely weighed and dissolved in DMSO to 1 mg/mL, which was used as a stock solution. An appropriate amount of compound stock solution was accurately pipetted and diluted with acetonitrile to prepare a standard series of solutions. 20 μL of each of the above standard series solutions were accurately pipetted, added with 180 μL of blank plasma, vortexed and mixed to prepare plasma samples equivalent to plasma concentrations of 1, 3, 10, 30, 100, 300, 1000, 3000 and 5000 ng/mL. Two-sample analysis was performed for each concentration to establish a standard curve. 20 μL of plasma was taken out, added with 200 μL of internal standard propranolol (5 ng/mL) in acetonitrile, vortexed and mixed. It was centrifuged at 4000 rpm for 5 min, and the supernatant was collected for LC-MS analysis. LC-MS detection conditions were as follows:
Chromatographic column: Thermo Scientific […] GOLD C-18 UPLC column, 100*2.1 mm, 1.9 μm.
Mobile phase: water (0.1% formic acid)-acetonitrile for gradient elution according to the table below.
After blood drug concentrations being detected by LC-MS, WinNonlin 6.1 software was used to calculate pharmacokinetic parameters by non-compartmental model method.

human plasma = assay: Anticoagulant effect on human plasma in vitro (APTT determination); assay type: biochemical; settings: for aPTT EC1.5×: concentration giving APTT of 1.5× blank control; for aPTT EC2×: concentration giving APTT of 2× blank control
Experimental: Example 51: Determination of the Anticoagulant Effect of the Compounds of the Present Invention on Human Plasma In Vitro
Plasma: Human blood was collected in a vacuum blood collection tube containing 3.2% sodium citrate (volume ratio 1:9), centrifuged at 3000 rpm for 10 min at room temperature, and the plasma was collected, divided into EP tubes, and stored at −80° C.
Reagents: APTT assay kit (Activated partial thromboplastin time assay kit, mindray), calcium chloride solution.
Instrument: coagulation meter (mindray, C2000-A)
The frozen human plasma in aliquots was thawed at room temperature and mixed well. 10 mM test compound dissolved in 100% DMSO was diluted with 100% DMSO to 1500, 750, 375, 187.5, 93.75, 46.88, 23.44, 11.72 μM. 98 μL of human plasma was added to a 1.5 mL EP tube, then 2 μL of compounds of different concentrations were added, and 2 μL of 100% DMSO was added for the blank group. They were incubated under a water bath at 37° C. for 10 min, and the samples were placed in the corresponding position of the coagulation analyzer to conduct APTT determination of the compounds.
Curve fitting was performed with GraphPad Prism software, and EC1.5× and EC2× values were calculated respectively, i.e., the concentrations of the compounds corresponding to the APTT of 1.5× and 2× blank control group.

Human Factor XIa = Human Factor XIa (Homo sapiens, UniProt P03951); assay: Inhibition of human coagulation factor XIa by absorptiometry (substrate S-2366); assay type: biochemical; settings: 37° C., 20 min incubation, absorbance 405 nm; read-out: hFXIa IC50
Experimental: Example 50: Detection of the Biological Activity of the Compounds of the Present Invention on the Inhibition of Human Coagulation Factor XIa by Absorptiometry
Buffer: 145 mM NaCl, 5 mM KCl, 1 mg/mL PEG 8000, 30 mM HEPES, pH 7.4
10 mM test compound dissolved in 100% DMSO was diluted with 100% DMSO to […]; 98 μL of FXIa enzyme solution (77.7 ng/mL) was added to each well of a 96-well plate, and 98 μL of buffer was added to the blank wells. 2 μL of compounds of different concentrations were added, and the blank and control wells were added with DMSO instead. They were mixed with a shaker, and incubated at 37° C. for 20 minutes.
Finally, 100 μL of 800 μM substrate was added to each well, and its absorbance was measured at 405 nm.

Sequence of Human Factor XIa (P03951 388-625 limits assumed): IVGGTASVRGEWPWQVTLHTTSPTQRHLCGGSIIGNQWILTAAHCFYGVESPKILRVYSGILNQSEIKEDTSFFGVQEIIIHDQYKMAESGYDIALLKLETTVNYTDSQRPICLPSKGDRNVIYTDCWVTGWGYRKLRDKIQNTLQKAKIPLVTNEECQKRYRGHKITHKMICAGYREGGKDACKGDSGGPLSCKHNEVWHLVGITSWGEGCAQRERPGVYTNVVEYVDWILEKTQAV
Sequence of Human Factor XIa (P03951 19-387 partner limits assumed): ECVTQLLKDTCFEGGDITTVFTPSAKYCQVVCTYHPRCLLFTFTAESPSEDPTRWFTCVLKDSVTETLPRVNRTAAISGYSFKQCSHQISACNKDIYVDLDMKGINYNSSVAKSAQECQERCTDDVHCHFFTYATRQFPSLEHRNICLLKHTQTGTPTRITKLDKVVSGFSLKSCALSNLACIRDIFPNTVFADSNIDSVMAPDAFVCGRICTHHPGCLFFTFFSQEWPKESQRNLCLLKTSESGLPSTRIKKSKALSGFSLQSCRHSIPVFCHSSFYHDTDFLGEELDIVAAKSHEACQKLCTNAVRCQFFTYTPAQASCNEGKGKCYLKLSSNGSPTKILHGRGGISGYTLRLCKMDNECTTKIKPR

Compound | aPTT EC1.5× (human plasma) | aPTT EC2× (human plasma) | IC50 (Human Factor XIa) | other results
O=C(O)c1ccc(NC(=O)[C@H](Cc2ccccc2)n2cnc(-c3cc(Cl)ccc3-n3cc(Cl)nn3)cc2=O)cc1 [Compound A, (S)-4-(2-(4-(5-chloro-2-(4-chloro-1H-1,2,3-triazol-1-yl)phenyl)-6-oxopyrimidin-1(6H)-yl)-3-phenylpropanamido)benzoic acid, reference compound] |  |  |  | F (Rat pharmacokinetics; ig): 8.2%; AUC (Rat pharmacokinetics; iv): 1410 ng·h/mL; Cmax (Rat pharmacokinetics; iv): 4600 ng/mL; Tmax (Rat pharmacokinetics; iv): 4.98 min; clearance (Rat pharmacokinetics; iv): 11.9 mL/min/kg; half-life (Rat pharmacokinetics; iv): 35.3 min; Vd (Rat pharmacokinetics; iv): 0.124 L/kg; AUC (Rat pharmacokinetics; po, ig): 576 ng·h/mL; Cmax (Rat pharmacokinetics; po, ig): 180 ng/mL; Tmax (Rat pharmacokinetics; po, ig): 30 min; half-life (Rat pharmacokinetics; po, ig): 75.6 min
CC(=O)c1ccc(Cl)cc1-c1cnn([C@@H](Cc2ccccc2)C(=O)Nc2ccc(C(=O)O)cc2)c(=O)c1 [Example 1, (S)-4-(2-(4-(2-acetyl-5-chlorophenyl)-6-oxopyridazin-1(6H)-yl)-3-phenylpropanamido)benzoic acid] | 9.31 µM | >30 µM |  | 
COc1nn(C(Cc2ccc(F)cc2)C(=O)Nc2ccc(C(=O)O)cc2)c(=O)cc1-c1cc(Cl)ccc1C(C)=O (stereo not shown) [Example 2] | 3.455 µM | >15 µM | 45.6 nM | 
COc1nn(C(Cc2ccc(Br)cc2)C(=O)Nc2ccc(C(=O)O)cc2)c(=O)cc1-c1cc(Cl)ccc1C(C)=O (stereo not shown) [Example 3, 4-(2-(4-(2-acetyl-5-chlorophenyl)-3-methoxy-6-oxopyridazin-1(6H)-yl)-3-(4-bromophenyl)propanamido)benzoic acid] |  |  | 51.2 nM | 
COc1nn(C(Cc2ccc(N3CCN(C(C)C)CC3=O)cc2)C(=O)Nc2ccc(C(=O)O)cc2)c(=O)cc1-c1cc(Cl)ccc1C(C)=O (stereo not shown) [Example 4, 4-(2-(4-(2-acetyl-5-chlorophenyl)-3-methoxy-6-oxopyridazin-1(6H)-yl)-3-(4-(4-isopropyl-2-oxopiperazin-1-yl)phenyl)propanamido)benzoic acid] | 2.171 µM | 11.938 µM | 32.6 nM | 
CCOCC1CCN(c2ccc(CC(C(=O)Nc3ccc(C(=O)O)cc3)n3nc(OC)c(-c4cc(Cl)ccc4C(C)=O)cc3=O)cc2)C(=O)C1 (stereo not shown) [Example 5] | 1.18 µM | 4.414 µM | 8.89 nM | 
CC(=O)c1ccc(Cl)cc1-c1cc(=O)n([C@@H](Cc2ccccc2)C(=O)Nc2ccc(C(=O)O)cc2)nc1OCCO [Example 6, (S)-4-(2-(4-(2-acetyl-5-chlorophenyl)-3-(2-hydroxyethoxy)-6-oxopyridazine-1(6H)-yl)-3-phenylpropanamido)benzoic acid] | 0.771 µM | 2.892 µM |  | F (Rat pharmacokinetics; ig): 1.7%; AUC (Rat pharmacokinetics; iv): 604 ng·h/mL; Cmax (Rat pharmacokinetics; iv): 1370 ng/mL; Tmax (Rat pharmacokinetics; iv): 4.98 min; clearance (Rat pharmacokinetics; iv): 27.6 mL/min/kg; half-life (Rat pharmacokinetics; iv): 9.72 min; Vd (Rat pharmacokinetics; iv): 0.432 L/kg; Cmax (Rat pharmacokinetics; po, ig): 30.5 ng/mL; Tmax (Rat pharmacokinetics; po, ig): 60 min
COc1nn(C(Cc2ccc(C)cc2)C(=O)Nc2ccc(C(=O)O)cc2)c(=O)cc1-c1cc(Cl)ccc1C(C)=O (stereo not shown) [Example 7, 4-(2-(4-(2-acetyl-5-chlorophenyl)-3-methoxy-6-oxopyridazine-1(6H)-yl)-3-(p-tolyl)propanamido)benzoic acid] | 2.073 µM | 12.58 µM | 24.2 nM | 
COc1nn(C(Cc2cccc(C)c2)C(=O)Nc2ccc(C(=O)O)cc2)c(=O)cc1-c1cc(Cl)ccc1C(C)=O (stereo not shown) [Example 8, 4 (2-(4-(2-acetyl-5-chlorophenyl)-3-methoxy-6-oxopyridazine-1(6H)-yl)-3-(m-tolyl)propanamido)benzoic acid] | 2.67 µM | >15 µM | 30.3 nM | 
COc1nn([C@@H](Cc2ccccc2)C(=O)Nc2ccc(C(=O)O)c(F)c2)c(=O)cc1-c1cc(Cl)ccc1C(C)=O [Example 14, (S)-4-(2-(4-(2-acetyl-5-chlorophenyl)-3-methoxy-6-oxopyridazin-1(6H)-yl)-3-phenylpropanamido)-2-fluorobenzoic acid] |  |  | 59.3 nM | 
CC(=O)c1ccc(Cl)cc1-c1cc(=O)n([C@@H](Cc2ccccc2)C(=O)Nc2ccc(C(=O)O)cc2)nc1OCC1CC1 [Example 20, (S)-4-(2-(4-(2-acetyl-5-chlorophenyl)-3-(cyclopropylmethoxy)-6-oxopyridazin-1(6H)-yl)-3-phenylpropanamido)benzoic acid] | 2.418 µM | 28.32 µM | 20.6 nM | 
CC(=O)c1ccc(Cl)cc1-c1cc(=O)n([C@@H](Cc2ccccc2)C(=O)Nc2ccc(C(=O)O)cc2)nc1OC(C)C [Example 22, (S)-4-(2-(4-(2-acetyl-5-chlorophenyl)-3-isopropoxy-6-oxopyridazin-1(6H)-yl)-3-phenylpropanamido)benzoic acid] | 1.346 µM | 9.382 µM | 16.2 nM | 
CC(=O)c1ccc(Cl)cc1-c1cc(=O)n([C@@H](Cc2ccccc2)C(=O)Nc2ccc(C(=O)O)cc2)nc1OCC(F)(F)F [Example 23, (S)-4-(2-(4-(2-acetyl-5-chlorophenyl)-6-oxo-3-(2,2,2-trifluoroethoxy)pyridazine-1(6H)-yl)-3-phenylpropanamido)benzoic acid] | 4.236 µM | >15 µM | 22.5 nM | 
COc1nn([C@@H](Cc2ccccc2)C(=O)Nc2ccc(C(=O)O)c(Cl)c2)c(=O)cc1-c1cc(Cl)ccc1C(C)=O [Example 27, (S)-4-(2-(4-(2-acetyl-5-chlorophenyl)-3-methoxy-6-oxopyridazin-1(6H)-yl)-3-phenylpropanamido)-2-chlorobenzoic acid] |  |  | 79.5 nM | 
COc1cc(NC(=O)[C@H](Cc2ccccc2)n2nc(OC)c(-c3cc(Cl)ccc3C(C)=O)cc2=O)ccc1C(=O)O [Example 28, (S)-4-(2-(4-(2-acetyl-5-chlorophenyl)-3-methoxy-6-oxopyridazin-1(6H)-yl)-3-phenylpropan amido)-2-methoxybenzoic acid] |  |  | 218 nM | 
COc1nn([C@@H](Cc2ccccc2)C(=O)Nc2ccc(C(=O)O)c(O)c2)c(=O)cc1-c1cc(Cl)ccc1C(C)=O [Example 29, (S)-4-(2-(4-(2-acetyl-5-chlorophenyl)-3-methoxy-6-oxopyridazin-1(6H)-yl)-3-phenylpropan amido)-2-hydroxybenzoic acid] |  |  | 63.8 nM | 
CC(=O)c1ccc(Cl)cc1-c1cc(=O)n([C@@H](Cc2ccccc2)C(=O)Nc2ccc(C(=O)O)cc2)nc1O [Example 34, (S)-4-(2-(4-(2-acetyl-5-chlorophenyl)-3-hydroxy-6-oxopyridazin-1(6H)-yl)-3-phenylpropanamido)benzoic acid] |  |  | 140 nM | 
O=C(O)c1ccc(NC(=O)[C@H](Cc2ccccc2)n2ncc(-c3c(F)ccc(Cl)c3F)cc2=O)cc1 [Example 42, (S)-4-(2-(4-(3-chloro-2,6-difluorophenyl)-6-oxopyridazin-1(6H)-yl)-3-phenylpropanamido)benzoic acid] |  |  | 1400 nM | 
